The results in this text go back to US20100093018A1, “CELLS […] PROTEINS AND ASSAYS USING SUCH CELLS” (ACHILLION PHARMACEUTICALS, INC., priority 2007, published 2010).

In general, EC50 refers to the concentration giving half of the maximal effect. A word on the EC90: it is the concentration at which the effect reaches the 90% level.

One test relates to Luc/Parent replicon. In words: Luciferase replicon susceptibility, parent. It counts as cell-based. Conditions: Hepatitis C virus, Luc/Parent replicon in Huh-7 cells, two independent experiments. On the procedure: (§1) To investigate the genetic basis of resistance to ACH-806 in the resistant replicon cellular lines, specifically the role of C16S and A39V in NS3, and 1585T 1 in NS5B, we introduced these mutations separately into a nonselectable replicon containing a luciferase reporter gene. Following the transfection of the parental replicon RNA molecule and the C16S, A39V and I585T variant replicon RNA molecules into Huh-7 cells, the replication capacity of all replicons was determined as described in Method and Materials. Replicon RNA carrying the A39V mutation replicated as efficiently as its parent, whereas the C16S and I585T mutations caused a slight decrease in the replication capacity (about 75% that of the parental replicon). The susceptibility of these four replicons to ACH-806 as well as to other classes of inhibitors was compared side by side, and the results are summarized in Table 2.
For orientation: A replicon is a self-replicating genome or part of one, used to study replication in cells.

Another test deals with Luc/NS5B-I585T. It counts as cell-based, hepatitis C virus. On the procedure:
as §1

Test [1] deals with replicon variants carrying either the C16S or A39V mutation. Put plainly: Summary of three approaches on mutant replicon variants. Conditions: all three approaches. In kind it is cell-based, hepatitis C virus. On the procedure: To investigate the genetic basis of resistance to ACH-806 in the resistant replicon cellular lines, specifically the role of C16S and A39V in NS3, and 1585T 1 in NS5B, we introduced these mutations separately into a nonselectable replicon containing a luciferase reporter gene. Following the transfection of the parental replicon RNA molecule and the C16S, A39V and I585T variant replicon RNA molecules into Huh-7 cells, the replication capacity of all replicons was determined as described in Method and Materials. […]
To further confirm the role of C16S and A39V in conferring resistance to ACH-806, we introduced both mutations, separately, into a selectable replicon which carries the neo gene and the adaptive mutations that differ from the nonselectable replicon. Following transfection of the parental replicon RNA, the C16S replicon RNA and A39V replicon RNA into Huh-7 cells, the susceptibility of these three replicons to ACH-806, as evaluated by the number of colonies formed under the treatment of both G418 and ACH-806, was compared side by side. […]
A third approach, fragment cloning, was used to reinforce the role of the C16S mutation and to exclude the role of other nonconsensus mutations in conferring resistant to ACH-806. […] The replication capacity of this resulting replicon [Luc/N3-4AR(C16)] was 95% that of its parent [Luc/N3-4AR(S16)] determined as previously described. […]

The subject of test [2] is C16S or A39V replicon variant. Put plainly: Colony formation with selectable replicon under G418 and ACH-806. In kind it is cell-based, hepatitis C virus. Particulars: C16S or A39V versus parental selectable replicon. From the text:
To further confirm the role of C16S and A39V in conferring resistance to ACH-806, we introduced both mutations, separately, into a selectable replicon which carries the neo gene and the adaptive mutations that differ from the nonselectable replicon. Following transfection of the parental replicon RNA, the C16S replicon RNA and A39V replicon RNA into Huh-7 cells, the susceptibility of these three replicons to ACH-806, as evaluated by the number of colonies formed under the treatment of both G418 and ACH-806, was compared side by side. Again, an approximately 10-fold reduction in the susceptibility of C16S or A39V replicon variant to ACH-806 was observed.

The test system of test [3] is Luc/NS3-4A^R(S16) replicon. In words: Fragment-cloned luciferase replicon susceptibility, S16. It counts as cell-based. Particulars: Hepatitis C virus. From the text:
A third approach, fragment cloning, was used to reinforce the role of the C16S mutation and to exclude the role of other nonconsensus mutations in conferring resistant to ACH-806. A ˜3 kb fragment covering the coding region of NS3, NS4A, and part of NS4B was amplified by RT-PCR from total RNA isolated from ACH-806 resistant clone #28. The PCR product was cloned into the nonselectable replicon containing a luciferase reporter gene. Replicon RNA molecules were made from eight individual clones and were transfected into Huh-7 cells to determine the replication capacity by luciferase activity. From the eight clones, two were able to replicate efficiently and sequencing of the entire cloned fragment in these two clones confirmed the existence of C16S mutation in addition to other nonconsensus mutations. The serine at the amino acid residue of NS3 in one of these two clones was then converted back to cysteine using site-directed mutagenesis, leaving other nonconsensus mutations unchanged. The replication capacity of this resulting replicon [Luc/N3-4AR(C16)] was 95% that of its parent [Luc/N3-4AR(S16)] determined as previously described. After transfection into Huh-7 cells, the susceptibility of both replicons was compared. […]

With `CCCCCOc1ccc(NC(=S)NC(=O)c2cccnc2)cc1C(F)(F)F` [ACH-806, 1-nicotinoyl-3-(4-(pentyloxy)-3-(trifluoromethyl)phenyl)thiourea], the EC50 with Luc/Parent replicon (read-out: Potency EC50) was found to be 10 ± 10 nM. For the same compound, the EC90 in the test with Luc/Parent replicon (read-out: Potency EC90) came to 80 ± 10 nM. Also, in the test on Luc/NS5B-I585T, the “Fold change in potency, EC50” value amounted to 0.7 ± 0.1 and the “Fold change in potency, EC90” value turned out to be 1.1 ± 0.1. Moreover, the “decrease in the susceptibility” value in test [1] is 10-15 fold. Also, the “reduction in the susceptibility (number of colonies formed)” value in test [2] is recorded as “approximately 10 fold”. In test [3], the EC50 came to 270 ± 40 nM and the EC90 came out at 2350 ± 240 nM.
